{
  "source": "patent US12655116B2",
  "about": "“Substituted isophthalic acid diamides” (Bayer Aktiengesellschaft, priority 2020, dated 2026)",
  "tested_on": "harmful plants",
  "assay": "Comparative experiments: herbicidal post-emergence action versus compounds known from D1 (WO 2012/028579 A1)",
  "format": "in vivo",
  "parameters": "key to Herbicidal action against ALOMY / Herbicidal action against AVEFA / Herbicidal action against LOLRI / Herbicidal action against MATIN / Herbicidal action against HORMU / Herbicidal action against ECHCG / Herbicidal action against SETVI / Herbicidal action against ABUTH / Herbicidal action against STEME / Herbicidal action against VIOTR / Herbicidal action against AMARE: % herbicidal action: 100 = plants died, 0 = like untreated control",
  "protocol": "Seeds of monocotyledonous and dicotyledonous weed and crop plants are laid out in sandy loam soil in wood-fiber pots, covered with soil and cultivated in a greenhouse under good growth conditions. 2 to 3 weeks after sowing, the test plants are treated at the one-leaf stage. The compounds of the invention, formulated in the form of wettable powders (WP) or as emulsion concentrates (EC), are then sprayed onto the green parts of the plants in the form of an aqueous suspension or emulsion at a water application rate equivalent to 600 to 800 l/ha, with addition of 0.2% wetting agent. After the test plants have been left to stand in the greenhouse under optimal growth conditions for about 3 weeks, the action of the preparations is assessed visually in comparison to untreated controls (herbicidal action in percent (%): 100% activity=the plants have died, 0% activity=like control plants). […] The tables below illustrate, in an illustrative manner, the post-emergence herbicidal action of the compounds of the invention, the herbicidal activity being stated in percent. In the experiments that follow, herbicidal action of numerous inventive compounds and the structurally closest compounds known from D1 (WO 2012/028579 A1) were compared under the above-specified conditions by the pre-emergence and post-emergence method. The example numbers given in the tables relate to the compounds disclosed in the respective documents.",
  "data": [
    {"smiles": "CCn1nnnc1NC(=O)c1ccc(C(F)(F)F)c(C(=O)NC)c1Cl", "note": "[Example 2-129]", "values": [
      {"measurement": "Herbicidal action against ALOMY", "setting": "5 g a.i./ha", "result": 100},
      {"measurement": "Herbicidal action against AMARE", "setting": "5 g a.i./ha, AMARE", "result": 100},
      {"measurement": "Herbicidal action against AVEFA", "setting": "5 g a.i./ha", "result": 100},
      {"measurement": "Herbicidal action against HORMU", "setting": "5 g a.i./ha", "result": 80},
      {"measurement": "Herbicidal action against MATIN", "setting": "5 g a.i./ha", "result": 80},
      {"measurement": "Herbicidal action against SETVI", "setting": "5 g a.i./ha", "result": 100}
    ]},
    {"smiles": "CNC(=O)c1c(C(F)(F)F)ccc(C(=O)Nc2nnnn2C)c1Cl", "note": "[Example 1-129]", "values": [
      {"measurement": "Herbicidal action against ABUTH", "setting": "5 g a.i./ha, ABUTH", "result": 100},
      {"measurement": "Herbicidal action against ALOMY", "setting": "5 g a.i./ha", "result": 90},
      {"measurement": "Herbicidal action against ECHCG", "setting": "5 g a.i./ha, ECHCG", "result": 100},
      {"measurement": "Herbicidal action against SETVI", "setting": "5 g a.i./ha", "result": 100},
      {"measurement": "Herbicidal action against STEME", "setting": "5 g a.i./ha, STEME", "result": 100},
      {"measurement": "Herbicidal action against VIOTR", "setting": "5 g a.i./ha", "result": 80}
    ]},
    {"smiles": "CCn1nnnc1NC(=O)c1ccc(C(F)F)c(C(=O)NC)c1Cl", "note": "[Example 2-147]", "values": [
      {"measurement": "Herbicidal action against ALOMY", "setting": "20 g a.i./ha", "result": 80},
      {"measurement": "Herbicidal action against AVEFA", "setting": "20 g a.i./ha", "result": 90},
      {"measurement": "Herbicidal action against HORMU", "setting": "20 g a.i./ha", "result": 80},
      {"measurement": "Herbicidal action against LOLRI", "setting": "20 g a.i./ha, LOLRI", "result": 70},
      {"measurement": "Herbicidal action against MATIN", "setting": "20 g a.i./ha", "result": 100},
      {"measurement": "Herbicidal action against PHBPU", "setting": "20 g a.i./ha", "result": 70}
    ]},
    {"smiles": "CNC(=O)c1c(C(F)F)ccc(C(=O)Nc2nnnn2C)c1Cl", "note": "[Example 1-147]", "values": [
      {"measurement": "Herbicidal action against ALOMY", "setting": "20 g a.i./ha", "result": 80},
      {"measurement": "Herbicidal action against AVEFA", "setting": "20 g a.i./ha", "result": 90},
      {"measurement": "Herbicidal action against MATIN", "setting": "20 g a.i./ha", "result": 100},
      {"measurement": "Herbicidal action against PHBPU", "setting": "20 g a.i./ha", "result": 80},
      {"measurement": "Herbicidal action against POLCO", "setting": "20 g a.i./ha, POLCO", "result": 90},
      {"measurement": "Herbicidal action against VIOTR", "setting": "20 g a.i./ha", "result": 70}
    ]}
  ]
}
